Values after ≈ are worked out from the molar mass of the structure shown.
Test system: B. subtilis ATCC 6633
Experiment: Microdilution MIC/MMC with resazurin
Format: cell-based, Bacillus subtilis
Conditions: B. subtilis ATCC 6633; compounds 1–8
Procedure: (§1) The antimicrobial activity was evaluated against 15 microorganisms. This included 11 bacterial strains: four standard strains (Staphylococcus aureus ATCC 25923, Bacillus subtilis ATCC 6633, Bacillus pumilus NCTC 8241, and Escherichia coli ATCC 25922) and six clinical or environmental isolates (Staphylococcus aureus, Escherichia coli, Bacillus cereus, Proteus mirabilis, Salmonella enterica, and Klebsiella pneumoniae). One probiotic strain, Bifidobacterium animalis subsp. lactis was tested. In addition, four fungal strains, Candida albicans ATCC 10231, Trichoderma viride ATCC 13233, Aspergillus flavus ATCC 9170, and Fusarium solani ATCC 11712 were tested. The bacterial strains were kept in glycerol stock at −80 °C and the fungal strains in paraffin oil stock at 4 °C.
(§2) Bacterial and yeast suspensions were prepared using the direct colony method, as previously described by Andrews. The turbidity of the initial suspensions was adjusted to match the 0.5 McFarland standard using a densitometer (Biosan, Riga, Latvia), corresponding to approximately 10^8 colony-forming units (CFU)/mL for bacterial cells and 10^6 CFU/mL for yeast cells. Subsequently, 1:100 dilutions of the initial suspensions were prepared in sterile 0.85% saline. Fungal spore suspensions were obtained by gently harvesting spores from agar slopes containing mature mycelial growth. The collected spore suspensions were then diluted 1:1000 in sterile 0.85% saline prior to use.
(§3) Antimicrobial activity was evaluated by determining the minimum inhibitory concentration (MIC) and minimum microbicidal concentration (MMC) using the microdilution plate method with resazurin as an indicator [28]. In the 96-well plates, 100 μL of Mueller–Hinton broth (Torlak, Belgrade, Serbia) for bacterial testing and Sabouraud broth (Torlak, Belgrade, Serbia) for fungal testing were dispensed into each well. The compounds under investigation were initially dissolved in a 10% dimethyl sulfoxide (DMSO) solution, followed by dilution in sterile distilled water, resulting in a working compound solution containing 1% DMSO. A 100 μL aliquot of the stock solution of the tested compound was added to the first row, and twofold serial dilutions were then carried out using a multichannel pipette. The resulting concentration range was from 5 to 0.039 mg/mL. The inoculated microtiter plates were incubated at 37 °C for 24 h for bacteria, at 28 °C for 48 h for yeasts, and at 28 °C for 72 h for molds.
(§4) Each test also included growth control and sterility control. All tests were conducted in duplicate. MIC was defined as the lowest concentration of tested compounds that prevented resazurin color change from blue to pink. For molds, MIC values of the tested compound were determined as the lowest concentration that inhibited visible mycelia growth. MMC was determined by inoculation of the nutrient agar medium by plating […] of samples from wells, where no indicator color change was recorded. At the end of the incubation period, the lowest concentration with no growth (no colony) was defined as MMC.
(§5) Doxycycline, ampicillin and amphotericin B (- Sigma-Aldrich, St. Louis, MO, USA) and ketoconazole (Hemofarm A.D., Vršac, Serbia) were dissolved in a nutrient liquid medium. Doxycycline is a broad-spectrum antibiotic effective against both aerobic and anaerobic Gram-positive and Gram-negative bacteria. Ampicillin, a beta-lactam antibiotic, primarily targets Gram-positive bacteria but also some Gram-negative strains. Amphotericin B is an antifungal drug often used for serious systemic fungal infections and is one of the effective treatments for fungal infections caused by Aspergillus sp. Ketoconazole is an antifungal agent used to inhibit the growth of Candida species.
In the case of `CSC(=S)NCCc1ccccc1` [Compound 1, Methyl phenethylcarbamodithioate], the MMC is reported as >5 mg/mL.

Same assay, conditions: Bacillus subtilis, ATCC6633; B. subtilis ATCC 6633; compounds 1–8; read-out: MIC
Compound `CSC(=S)NCCc1ccccc1` [Compound 1, Methyl phenethylcarbamodithioate] has an MIC of 2500 µg/mL (≈ 11.8 mM).

Test system: B. cereus
Experiment: Microdilution MIC/MMC with resazurin
Format: cell-based, Bacillus cereus
Conditions: B. cereus; compounds 1–8
Procedure: as §1, §2, §3, §4, §5
In the case of `CSC(=S)NCCc1ccccc1` [Compound 1, Methyl phenethylcarbamodithioate], the MMC is reported as 5 mg/mL.

Same assay, conditions: Bacillus cereus; B. cereus; compounds 1–8; read-out: MIC
`CSC(=S)NCCc1ccccc1` [Compound 1, Methyl phenethylcarbamodithioate] gave an MIC of 5000 µg/mL (≈ 23.7 mM).

Test system: B. pumilus NCTC 8241
Experiment: Microdilution MIC/MMC with resazurin
Format: cell-based, Bacillus pumilus
Conditions: B. pumilus NCTC 8241; compounds 1–8
Procedure: as §1, §2, §3, §4, §5
Compound `CSC(=S)NCCc1ccccc1` [Compound 1, Methyl phenethylcarbamodithioate] has an MMC of 2.5 mg/mL.

Same assay, conditions: Bacillus pumilus, NCTC8241; B. pumilus NCTC 8241; compounds 1–8; read-out: MIC
With `CSC(=S)NCCc1ccccc1` [Compound 1, Methyl phenethylcarbamodithioate] the MIC was 1250 µg/mL (≈ 5.91 mM).

Test system: S. aureus ATCC 25923
Experiment: Microdilution MIC/MMC with resazurin
Format: cell-based, Staphylococcus aureus
Conditions: S. aureus ATCC 25923; compounds 1–8
Procedure: as §1, §2, §3, §4, §5
With `CSC(=S)NCCc1ccccc1` [Compound 1, Methyl phenethylcarbamodithioate] the MMC was 5 mg/mL.

Same assay, conditions: Staphylococcus aureus, ATCC25923; S. aureus ATCC 25923; compounds 1–8; read-out: MIC
In the case of `CSC(=S)NCCc1ccccc1` [Compound 1, Methyl phenethylcarbamodithioate], the MIC is reported as 5000 µg/mL (≈ 23.7 mM).

Test system: S. aureus
Experiment: Microdilution MIC/MMC with resazurin
Format: cell-based, Staphylococcus aureus
Conditions: S. aureus isolate; compounds 1–8
Procedure: as §1, §2, §3, §4, §5
In the case of `CSC(=S)NCCc1ccccc1` [Compound 1, Methyl phenethylcarbamodithioate], the MMC is reported as 5 mg/mL.

Same assay, conditions: Staphylococcus aureus; S. aureus isolate; compounds 1–8; read-out: MIC
Work on `CSC(=S)NCCc1ccccc1` [Compound 1, Methyl phenethylcarbamodithioate] yielded an MIC of 5000 µg/mL (≈ 23.7 mM).

Test system: E. coli ATCC 25922
Experiment: Microdilution MIC/MMC with resazurin
Format: cell-based, Escherichia coli
Conditions: E. coli ATCC 25922; compounds 1–8
Procedure: as §1, §2, §3, §4, §5
In the case of `CSC(=S)NCCc1ccccc1` [Compound 1, Methyl phenethylcarbamodithioate], the MMC is reported as 1.25 mg/mL.

Same assay, conditions: Escherichia coli, ATCC25922; E. coli ATCC 25922; compounds 1–8; read-out: MIC
`CSC(=S)NCCc1ccccc1` [Compound 1, Methyl phenethylcarbamodithioate] gave an MIC of 1250 µg/mL (≈ 5.91 mM).

Test system: E. coli
Experiment: Microdilution MIC/MMC with resazurin
Format: cell-based, Escherichia coli
Conditions: E. coli isolate; compounds 1–8
Procedure: as §1, §2, §3, §4, §5
With `CSC(=S)NCCc1ccccc1` [Compound 1, Methyl phenethylcarbamodithioate] the MMC was 5 mg/mL.

Same assay, conditions: Escherichia coli; E. coli isolate; compounds 1–8; read-out: MIC
Compound `CSC(=S)NCCc1ccccc1` [Compound 1, Methyl phenethylcarbamodithioate] has an MIC of 2500 µg/mL (≈ 11.8 mM).

Test system: P. mirabilis
Experiment: Microdilution MIC/MMC with resazurin
Format: cell-based, Proteus mirabilis
Conditions: P. mirabilis; compounds 1–8
Procedure: as §1, §2, §3, §4, §5
For `CSC(=S)NCCc1ccccc1` [Compound 1, Methyl phenethylcarbamodithioate], the MMC was 5 mg/mL.

Same assay, conditions: Proteus mirabilis; P. mirabilis; compounds 1–8; read-out: MIC
For `CSC(=S)NCCc1ccccc1` [Compound 1, Methyl phenethylcarbamodithioate], the MIC was 5000 µg/mL (≈ 23.7 mM).

Test system: S. enterica
Experiment: Microdilution MIC/MMC with resazurin
Format: cell-based, Salmonella enterica
Conditions: Salmonella enterica, compounds 1–8
Procedure: as §1, §2, §3, §4, §5
In the case of `CSC(=S)NCCc1ccccc1` [Compound 1, Methyl phenethylcarbamodithioate], the MIC is reported as 5000 µg/mL (≈ 23.7 mM).

Same assay, conditions: compounds 1–8
Work on `CSC(=S)NCCc1ccccc1` [Compound 1, Methyl phenethylcarbamodithioate] yielded an MMC of 5 mg/mL.

Test system: K. pneumoniae
Experiment: Microdilution MIC/MMC with resazurin
Format: cell-based, Klebsiella pneumoniae
Conditions: K. pneumoniae; compounds 1–8
Procedure: as §1, §2, §3, §4, §5
For `CSC(=S)NCCc1ccccc1` [Compound 1, Methyl phenethylcarbamodithioate], the MMC was 5 mg/mL.

Same assay, conditions: Klebsiella pneumoniae; K. pneumoniae; compounds 1–8; read-out: MIC
Compound `CSC(=S)NCCc1ccccc1` [Compound 1, Methyl phenethylcarbamodithioate] has an MIC of 5000 µg/mL (≈ 23.7 mM).

Test system: T. viride ATCC 13233
Experiment: Microdilution MIC/MMC
Format: cell-based, Trichoderma viride
Conditions: T. viride ATCC 13233; compounds 1–8
Procedure: as §1, §2, §3, §4, §5
`CSC(=S)NCCc1ccccc1` [Compound 1, Methyl phenethylcarbamodithioate] gave an MMC of 1.25 mg/mL.

Same assay, conditions: Trichoderma viride, ATCC13233; T. viride ATCC 13233; compounds 1–8; read-out: MIC
For `CSC(=S)NCCc1ccccc1` [Compound 1, Methyl phenethylcarbamodithioate], the MIC was 625 µg/mL (≈ 2.96 mM).

Test system: A. flavus ATCC 9170
Experiment: Microdilution MIC/MMC
Format: cell-based, Aspergillus flavus
Conditions: A. flavus ATCC 9170; compounds 1–8
Procedure: as §1, §2, §3, §4, §5
In the case of `CSC(=S)NCCc1ccccc1` [Compound 1, Methyl phenethylcarbamodithioate], the MMC is reported as 2.5 mg/mL.

Same assay, conditions: Aspergillus flavus, ATCC9170; A. flavus ATCC 9170; compounds 1–8; read-out: MIC
For `CSC(=S)NCCc1ccccc1` [Compound 1, Methyl phenethylcarbamodithioate], the MIC was 1250 µg/mL (≈ 5.91 mM).

Test system: F. solani ATCC 11712
Experiment: Microdilution MIC/MMC
Format: cell-based, Fusarium solani
Conditions: F. solani ATCC 11712; compounds 1–8
Procedure: as §1, §2, §3, §4, §5
`CSC(=S)NCCc1ccccc1` [Compound 1, Methyl phenethylcarbamodithioate] showed an MMC of 1.25 mg/mL.

Same assay, conditions: Fusarium solani, ATCC11712; F. solani ATCC 11712; compounds 1–8; read-out: MIC
For `CSC(=S)NCCc1ccccc1` [Compound 1, Methyl phenethylcarbamodithioate], the MIC was 1250 µg/mL (≈ 5.91 mM).

Test system: not listed separately
Experiment: ABTS radical scavenging assay
Conditions: 25 µM; mean ± SD
Procedure: The ABTS radical cation solution was prepared following the previously described protocol. Different concentrations of the analyzed samples were prepared in DMSO. The test samples were prepared following the specified procedure: 20 µL of sample was combined with 980 µL of methanol, followed by the addition of 1000 µL of ABTS solution. Absorbance was measured at 734 nm. All measurements were performed in triplicate.
For `CSC(=S)NCCc1ccccc1` [Compound 1, Methyl phenethylcarbamodithioate], the “ABTS Scavenging Ability” value was 1.7 ± 1.1%.

Same assay, conditions: 50 µM; mean ± SD
For `CSC(=S)NCCc1ccccc1` [Compound 1, Methyl phenethylcarbamodithioate], the “ABTS Scavenging Ability” value was 2.2 ± 1.2%.

Same assay, conditions: 100 µM; mean ± SD
In the case of `CSC(=S)NCCc1ccccc1` [Compound 1, Methyl phenethylcarbamodithioate], the “ABTS Scavenging Ability” value is reported as 2.6 ± 0.8%.

Reference: PMC12693701, “Glucosinolate-Derived Metabolites from Barbarea vulgaris (Brassicaceae): Evaluation of Antimicrobial, Antioxidant, and Anti-Inflammatory Potentials” (Molecules, 2025)
